Reference: US12180185B2, “Compound as protein kinase inhibitor, and pharmaceutical composition comprising thereof” (HK INNO.N Corporation, priority 2018, dated 2024)
pIC50: −log10 of the molar value.

Molecular target: JAK1 (Homo sapiens (Human), UniProt P23458)
Assay: Analysis of JAK1 activity inhibitory capacity (ADP-Glo Kinase assay)
Type: biochemical
Conditions: JAK1 enzyme, ATP 250 uM, IRS-1tide substrate, 30° C. 40 minutes, luminescence
Protocol: Experimental Example 1: Analysis of JAK1 activity inhibitory capacity (ADP-Glo™ Kinase assay)
An inhibitory effect of the inventive compound on JAK was identified as follows.
A control material and a test material were prepared through dilution at each concentration by using DMSO. At the same time, ATP (250 uM) and JAK's substrate (JAK1, IRS-1tide 40 ng/mL) were prepared through dilution in kinase buffer (40 mM Tris-HCl pH 7.5, 20 mM MgCl2, 0.5 mg/mL BSA, 50 uM DTT).
A test drug for each concentration, the substrate, the ATP and JAK enzymes were mixed in an eppendorf tube, and then subjected to reaction in an incubator at 30° C. for 40 minutes.
ADP-Glo ? reagent included in ADP-Glo™ Kinase Enzyme System (Promega, USA, V9571) was added to each eppendorf tube, and then subjected to reaction in the incubator at 30° C. for 40 minutes.
A kinase detection reagent included in the ADP-Glo™ Kinase Enzyme System was inserted into the eppendorf tube, after which luminescence was measured by using Wallac Victor 2TM with an integration time set to 1 second, such that an inhibitory capacity of the test material on JAKs phosphorylation was analyzed. A concentration of the compound, at which JAK enzyme activity inhibition occurs 50% compared to the control group, was determined as IC50 (nM) of an inhibitor.

Sequence of JAK1 (P23458 whole entry): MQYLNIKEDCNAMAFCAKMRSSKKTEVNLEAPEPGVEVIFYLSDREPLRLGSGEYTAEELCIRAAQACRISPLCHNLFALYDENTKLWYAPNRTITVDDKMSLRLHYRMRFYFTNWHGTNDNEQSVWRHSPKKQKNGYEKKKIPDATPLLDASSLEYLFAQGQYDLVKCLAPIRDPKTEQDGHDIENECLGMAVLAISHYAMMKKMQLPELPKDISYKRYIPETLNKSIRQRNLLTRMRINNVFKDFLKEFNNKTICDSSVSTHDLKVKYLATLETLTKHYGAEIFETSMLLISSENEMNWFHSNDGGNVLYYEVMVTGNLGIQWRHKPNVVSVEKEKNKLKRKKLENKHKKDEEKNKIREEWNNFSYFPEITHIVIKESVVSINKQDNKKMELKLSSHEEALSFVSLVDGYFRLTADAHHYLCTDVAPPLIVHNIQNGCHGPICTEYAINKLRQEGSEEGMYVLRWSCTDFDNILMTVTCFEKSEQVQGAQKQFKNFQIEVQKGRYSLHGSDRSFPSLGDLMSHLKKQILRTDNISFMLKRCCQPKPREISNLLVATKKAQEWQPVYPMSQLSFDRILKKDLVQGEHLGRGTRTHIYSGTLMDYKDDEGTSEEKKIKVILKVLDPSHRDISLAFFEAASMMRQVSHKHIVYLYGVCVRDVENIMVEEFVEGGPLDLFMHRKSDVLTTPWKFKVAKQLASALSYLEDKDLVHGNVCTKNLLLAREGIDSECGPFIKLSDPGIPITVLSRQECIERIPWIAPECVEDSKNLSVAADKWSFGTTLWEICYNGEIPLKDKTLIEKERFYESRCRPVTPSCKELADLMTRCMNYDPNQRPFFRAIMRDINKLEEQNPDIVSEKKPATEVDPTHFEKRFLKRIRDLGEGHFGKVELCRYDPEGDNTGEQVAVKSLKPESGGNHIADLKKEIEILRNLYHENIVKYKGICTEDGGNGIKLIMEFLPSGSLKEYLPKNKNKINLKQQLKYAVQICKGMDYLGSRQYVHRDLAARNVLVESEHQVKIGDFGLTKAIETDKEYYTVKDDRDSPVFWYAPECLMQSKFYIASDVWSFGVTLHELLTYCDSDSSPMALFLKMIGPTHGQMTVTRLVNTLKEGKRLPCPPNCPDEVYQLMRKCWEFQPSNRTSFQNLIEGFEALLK

Row | pIC50 | Compound
1 | 6.00 to 7.00 | N#CCC(=O)Nc1cccc2c1ccn2-c1ccnc(NC(=O)C2CC2)c1 [Example 41, N-(4-(4-(2-cyanoacetamido)-1H-indol-1-yl)pyridin-2-yl)cyclopropanecarboxamide]
2 | 6.00 to 7.00 | O=C(Nc1cccc2c(-c3ccnc(NC(=O)C4CC4)c3)c[nH]c12)c1cc[nH]n1 [Example 33, N-(3-(2-(cyclopropanecarboxamido)pyridin-4-yl)-1H-indol-7-yl)-1H-pyrazole-3-carboxamide]
3 | 6.00 to 7.00 | CC(C#N)C(=O)Nc1cccc2c1ccn2-c1ccnc(NC(=O)C2CC2)c1 (stereo not shown) [Example 54, N-(4-(4-(2-cyanopropanamido)-1H-indol-1-yl)pyridin-2-yl)cyclopropanecarboxamide]
4 | > 7.00 | N#C[C@H]1C[C@H]1C(=O)Nc1cccc2c1ccn2-c1ccnc(NC(=O)C2CC2)c1 [Example 57, (1R,2S)-2-cyano-N-(1-(2-(cyclopropanecarboxamido)pyridin-4-yl)-1H-indol-4-yl) cyclopropane-1-carboxamide]
5 | > 7.00 | O=C(NCC(F)(F)F)Nc1cccc2c1ccn2-c1ccnc(NC(=O)C2CC2)c1 [Example 62, N-(4-(4-(3-(2,2,2-trifluoroethyl)ureido)-1H-indol-1-yl)pyridin-2-yl)cyclopropanecarboxamide]
6 | < 6.00 | O=C(Nc1cccc2c1ccn2-c1ccnc(NC(=O)C2CC2)c1)c1cc(F)cc(F)c1 [Example 44, N-(1-(2-(cyclopropanecarboxamido)pyridin-4-yl)-1H-indol-4-yl)-3,5-difluorobenzamide]
7 | < 6.00 | N#C/C(=C\c1ccccc1)C(=O)Nc1cccc2c1ccn2-c1ccnc(NC(=O)C2CC2)c1 [Example 48, N-(4-(4-(2-cyano-3-phenylacrylamido)-1H-indol-1-yl)pyridin-2-yl)cyclopropanecarboxamide]
8 | 6.00 to 7.00 | O=C(Nc1cccc2c(-c3ccnc(NC(=O)C4CC4)c3)c[nH]c12)c1ccc(Cl)nc1 [Example 32, 6-chloro-N-(3-(2-(cyclopropanecarboxamido)pyridin-4-yl)-1H-indol-7-yl)nicotinamide]
9 | 6.00 to 7.00 | N#CC1(CC(=O)Nc2cccc3c2ccn3-c2ccnc(NC(=O)C3CC3)c2)CC1 [Example 58, N-(4-(4-(2-(1-cyanocyclopropyl)acetamido)-1H-indol-1-yl)pyridin-2-yl)cyclopropane carboxamide]
10 | > 7.00 | O=C(Nc1cccc2c(-c3ccnc(NC(=O)C4CC4)c3)c[nH]c12)c1cncc(F)c1 [Example 31, N-(3-(2-(cyclopropanecarboxamido)pyridin-4-yl)-1H-indol-7-yl)-5-fluoronicotinamide]
11 | > 7.00 | O=C(NCC(F)(F)F)Nc1cccc2c(-c3ccnc(NC(=O)C4CC4)c3)c[nH]c12 [Example 39, N-(4-(7-(3-(2,2,2-trifluoroethyl)ureido)-1H-indol-3-yl)pyridin-2-yl)cyclopropanecarboxamide]
12 | < 6.00 | O=C(NCC(F)(F)F)Nc1cccc2c(-c3ccnc(NC(=O)C4CC4)c3)cn(C(=O)NCC(F)(F)F)c12 [Example 37, 3-(2-(cyclopropanecarboxamido)pyridin-4-yl)-N-(2,2,2-trifluoroethyl)-7-(3-(2,2,2-trifluoroethyl)ureido)-1H-indole-1-carboxamide]
13 | < 6.00 | Cn1cccc(C(=O)Nc2cccc3c2ccn3-c2ccnc(NC(=O)C3CC3)c2)c1=O [Example 45, N-(1-(2-(cyclopropanecarboxamido)pyridin-4-yl)-1H-indol-4-yl)-1-methyl-2-oxo-1,2-dihydropyridine-3-carboxamide]
14 | < 6.00 | N#C/C(=C/c1cccs1)C(=O)Nc1cccc2c1ccn2-c1ccnc(NC(=O)C2CC2)c1 [Example 46, N-(4-(4-(2-cyano-3-(thiophen-2-yl)acrylamido)-1H-indol-1-yl)pyridin-2-yl)cyclopropanecarboxamide]
15 | 6.00 to 7.00 | N#Cc1cc(C(=O)Nc2cccc3c(-c4ccnc(NC(=O)C5CC5)c4)c[nH]c23)ccn1 [Example 35, 2-cyano-N-(3-(2-(cyclopropanecarboxamido)pyridin-4-yl)-1H-indol-7-yl)isonicotin amide]

Further lines, the compound ahead of its results:

Row | Compound | pIC50
16 | O=C(Nc1cccc2c(-c3ccnc(NC(=O)C4CC4)c3)c[nH]c12)c1cncs1 [Example 6, N-(3-(2-(cyclopropanecarboxamido)pyridin-4-yl)-1H-indol-7-yl)thiazole-5-carboxamide] | > 7.00
17 | N#C/C(=C\c1ccccc1)C(=O)Nc1cccc2c(-c3ccnc(NC(=O)C4CC4)c3)c[nH]c12 [Example 22, (E)-N-(4-(7-(2-cyano-3-phenylacrylamido)-1H-indol-3-yl)pyridin-2-yl)cyclopropanecarboxamide] | 6.00 to 7.00
18 | O=C(Nc1cc(-c2c[nH]c3c(NC(=O)C4CCCCC4)cccc23)ccn1)C1CC1 [Example 3, N-(3-(2-(cyclopropanecarboxamido)pyridin-4-yl)-1H-indol-7-yl)cyclohexanecarboxamide] | 6.00 to 7.00
19 | CC(C)=C(C#N)C(=O)Nc1cccc2c(-c3ccnc(NC(=O)C4CC4)c3)c[nH]c12 [Example 1, N-(4-(7-(2-cyano-3-methylbut-2-enamido)-1H-indol-3-yl)pyridin-2-yl)cyclopropanec arboxamide] | > 7.00
20 | Cc1ccncc1C(=O)Nc1cccc2c(-c3ccnc(NC(=O)C4CC4)c3)c[nH]c12 [Example 24, N-(3-(2-(cyclopropanecarboxamido)pyridin-4-yl)-1H-indol-7-yl)-4-methylnicotinamide] | > 7.00
21 | CC(C(=O)Nc1cccc2c(-c3ccnc(NC(=O)C4CC4)c3)c[nH]c12)N1CCN(C)CC1 (stereo not shown) [Example 18, N-(4-(7-(2-(4-methylpiperazin-1-yl)propanamido)-1H-indol-3-yl)pyridin-2-yl)cyclopropanecarboxamide] | 6.00 to 7.00
22 | Cc1cnc(NC(=O)C2CC2)cc1-c1c[nH]c2c(NC(=O)CC#N)cccc12 [Example 8, N-(4-(7-(2-cyanoacetamido)-1H-indol-3-yl)-5-methylpyridin-2-yl)cyclopropanecarboxamide] | 6.00 to 7.00
23 | CC(C)=C(C#N)C(=O)Nc1cccc2c(-c3ccnc(NC(=O)C4CC4)c3)cn(C)c12 [Example 26, N-(4-(7-(2-cyano-3-methylbut-2-enamido)-1-methyl-1H-indol-3-yl)pyridin-2-yl)cyclopropanecarboxamide] | < 6.00
24 | CC(C)=C(C#N)C(=O)Nc1cccc2c(-c3cc(NC(=O)C4CC4)ncc3C)c[nH]c12 [Example 12, N-(4-(7-(2-cyano-3-methylbut-2-enamido)-1H-indol-3-yl)-5-methylpyridin-2-yl)cyclopropanecarboxamide] | < 6.00
25 | CC(C)=C(C)C(=O)Nc1cccc2c(-c3ccnc(NC(=O)C4CC4)c3)c[nH]c12 [Example 17, N-(4-(7-(2,3-dimethylbut-2-enamido)-1H-indol-3-yl)pyridin-2-yl)cyclopropanecarboxamide] | 6.00 to 7.00
26 | O=C(Nc1cccc2c(-c3ccnc(NC(=O)C4CC4)c3)c[nH]c12)c1ccc(C(F)(F)F)nc1 [Example 29, N-(3-(2-(cyclopropanecarboxamido)pyridin-4-yl)-1H-indol-7-yl)-6-(trifluoromethyl) nicotinamide] | 6.00 to 7.00
27 | O=C(Nc1cccc2c(-c3ccnc(NC(=O)C4CC4)c3)c[nH]c12)c1nc(C(F)(F)F)cs1 [Example 21, N-(3-(2-(cyclopropanecarboxamido)pyridin-4-yl)-1H-indol-7-yl)-4-(trifluoromethyl)thiazole-2-carboxamide] | 6.00 to 7.00
28 | COc1cc(-c2c[nH]c3c(NC(=O)C(C#N)=C(C)C)cccc23)cc(NC(=O)C2CC2)n1 [Example 19, N-(4-(7-(2-cyano-3-methylbut-2-enamido)-1H-indol-3-yl)-6-methoxypyridin-2-yl)cyclopropanecarboxamide] | < 6.00
29 | N#CC1(CC(=O)Nc2cccc3c(-c4ccnc(NC(=O)C5CC5)c4)c[nH]c23)CC1 [Example 13, N-(4-(7-(2-(l-cyanocyclopropyl)acetamido)-1H-indol-3-yl)pyridin-2-yl)cyclopropanecarboxamide] | 6.00 to 7.00
30 | Cc1ccc(C(=O)Nc2cccc3c(-c4ccnc(NC(=O)C5CC5)c4)c[nH]c23)cn1 [Example 28, N-(3-(2-(cyclopropanecarboxamido)pyridin-4-yl)-1H-indol-7-yl)-6-methylnicotinamide] | > 7.00
31 | O=C(Nc1cccc2c(-c3ccnc(NC(=O)C4CC4)c3)c[nH]c12)c1cc(F)cc(F)c1 [Example 2, N-(3-(2-(cyclopropanecarboxamido)pyridin-4-yl)-1H-indol-7-yl)-3,5-difluorobenzamide] | > 7.00
32 | CCCC(=O)Nc1cccc2c(-c3ccnc(NC(=O)C4CC4)c3)c[nH]c12 [Example 7, N-(4-(7-butyramido-1H-indol-3-yl)pyridin-2-yl)cyclopropanecarboxamide] | > 7.00
33 | N#CC1(C(=O)Nc2cccc3c(-c4ccnc(NC(=O)C5CC5)c4)c[nH]c23)CCOCC1 [Example 11, 4-cyano-N-(3-(2-(cyclopropanecarboxamido)pyridin-4-yl)-1H-indol-7-yl)tetrahydro-2H-pyran-4-carboxamide] | 6.00 to 7.00
34 | N#Cc1ccc(C(=O)Nc2cccc3c(-c4ccnc(NC(=O)C5CC5)c4)c[nH]c23)cc1 [Example 27, 4-cyano-N-(3-(2-(cyclopropanecarboxamido)pyridin-4-yl)-1H-indol-7-yl)benzamide] | 6.00 to 7.00
